Assay results as given in ChEMBL document CHEMBL3868628, “Dimeric sesquiterpene and thiophenes from the roots of Echinops latifolius” (Bioorg Med Chem Lett, 2016).

Key:
[1] = Antiinflammatory activity in mouse RAW264.7 cells assessed as reduction in LPS-induced NO production after 24 hrs in presence of LPS by colorimetric analysis; type: functional, cell-based; conditions: RAW264.7, 24 h
Mus musculus = species: Mus musculus; assay: Cytotoxicity against mouse RAW264.7 cells assessed as reduction in cell viability at 1 to 10 uM after 24 hrs by cell counting based colorimetric analysis; type: toxicity; conditions: raw264.7, 24 h

SMILES	IC50 [1]	Activity (Mus musculus)
CC#Cc1ccc(-c2ccc(C(=O)OC)s2)s1	> 100 µM	–
C=C1CCC[C@]2(C)C[C@]3(O)OC(=O)C(C)=C3C[C@@H]12 [ATRACTYLENOLIDE III]	> 100 µM	–
CC#Cc1ccc(-c2ccc(C(O)CO)s2)s1 (stereo not given)	48.7 µM	–
N=C(N)NN [PIMAGEDINE]	24.2 µM	–
C=C(C)[C@@H]1CC[C@]2(C)C(=C(C)OC3=C2C[C@H]2C4C[C@H](C(C)C)CC[C@@]4(C)CC(=O)[C@@]2(O)O3)C1 (stereo not given in full)	–	Toxic
CC#Cc1ccc(-c2ccc(C=O)s2)s1	> 100 µM	–

More lines, in order of falling IC50 [1], values ahead:

IC50 [1]	SMILES	Activity (Mus musculus)
30.9 µM	CC#Cc1ccc(-c2ccc(C(CO)OC)s2)s1 (stereo not given)	–
28.2 µM	C/C=C/C#CC#Cc1ccc(C(O)CO)s1 (stereo not given)	–
13.2 µM	COc1ccc2c(c1)c(CC(=O)O)c(C)n2C(=O)c1ccc(Cl)cc1 [INDOMETHACIN]	–
12.8 µM	C/C=C\C#CC#Cc1ccc(C(O)CO)s1 (stereo not given)	–
